Consider one compound from US5039662A, “Peptide with anti-metastasis activity” (Monsanto, priority 1989, dated 1991).

SMILES strings stand for the structures. Peptide text beside a SMILES is read from it.

One experiment concerns HT-1080 cells. The experiment can be described thus: In vitro cell attachment assay. Type of experiment: cell-based. The settings on record: HT-1080 human fibrosarcoma cells; attachment to peptide-coated wells / inhibition of attachment to laminin; FIG. 1. The protocol:
HT-1080 cells from a human fibrosarcoma (Rasheed, S. et al., Cancer (Philadelphia) 33:1027 (1974) are maintained in Dulbecco's modified Eagle's medium (DMEM) supplemented with 10% fetal calf serum. After the cells are grown to 80% confluency, they are washed with 0.02M phosphate buffer, pH 7.4, without CA ^30 2 and Mg^30 2 and detached with a solution of 0.025% trypsin plus 0.025% ethylenediaminetetraacetic acid (EDTA; GIBCO). The cells are then pelleted by lowspeed centrifugation and resuspended in Eagle's minimal essential medium (EMEM) containing 0.02% bovine serum albumin (BSA, Sigma Chemical Co., St. Louis, Mo.). Cell attachment assays are performed as described in Klebe, R. J. Nature (London) 250:248 (1974), on tissue culture plastic substrates by using 16-mm Falcon tissue culture wells (Fisher Scientific Co., Pittsburg, Pa.) incubated with various peptides or with laminin in 1 mL of EMEM containing 0.02% BSA for 1 or 2 hours at 37° C. Cells (10^5 in 0.1 1 mL) are added to the wells, and the solution is incubated for an additional 1 hour at 37° C. in 95% air and 5% CO2. Subsequently, the wells are rinsed 3 times with 1 mL of phosphate-buffered saline (PBS) to remove unattached cells. Attached cells are trypsinized and counted electronically (Coulter, ZBI). […]

In another experiment the test system is B16F10 melanoma cells. The experiment can be described thus: Lung tumor colonization assay. The class given is in vivo, C57BL/6 female mice. The note with it: B16F10 cells (5×10^5) mixed with 0.1 mL peptide at 5 mg/mL, tail vein injection, lungs counted after three weeks, FIG. 2. As for the experimental part: B16F10 melanoma cells, obtained from I. J. Fidler, M. D., Anderson Hospital, Houston, Tex., are propagated under standard culture conditions. The lung tumor colonization assay is carried out as described in Fidler, I. J., Nature (London) (New Biol) 242:148 (1973). Peptides are dissolved at 5 mg/mL in PBS and are filter-sterilized. The suspension of B16F10 cells (5×10^5) in 0.1 mL of DMEM is mixed with 0.1 mL of the peptide, (or 0.1 ml PBS in Control) incubated for 5 minutes at room temperature, and then injected into the tail vein of syngeneic C57BL/6 female mice (Jackson Labs., Bar Habor, Me.) at 6 weeks of age. Each treatment and control group consists of eight mice. Three weeks after the injections, the mice are killed and the number of pulmonary tumors on the surface of the lungs counted.

`CC[C@H](C)[C@H](NC(=O)[C@H](Cc1ccc(O)cc1)NC(C)=O)C(=O)NCC(=O)N[C@@H](CO)C(=O)N[C@@H](CCCNC(=N)N)C(N)=O` [AcYIGSR-NH2] (Ac-YIGSR-NH2): in the experiment with HT-1080 cells, the cell adhesion activity result is recorded as “having cell adhesion activity”. Moreover, the “antimetastatic effectiveness (number of pulmonary tumors on the surface of the lungs) relative to YIGSR-NH2” value in the experiment on B16F10 melanoma cells is “at least twice as effective as YIGSR-NH2”; in the experiment on B16F10 melanoma cells (listed as peptide of the invention), “at least twice as effective as linear YIGSR-NH2”.
